Values of other authors, collected in patent US7157444B2, “Aminosalicylate derivatives for treatment of inflammatory bowel disease” (priority 2002, dated 2007).

Details: oral, 40 mL of a suspension of 1 g of ASA in water, fasted healthy subjects

| maximum plasma concentration [µg/mL] | time of maximum plasma concentration post-dose | Structure (SMILES) |
| --- | --- | --- |
| 14.7 | Within an hour post-dose | Nc1ccc(O)c(C(=O)O)c1 [ASA, 5-aminosalicylic acid] |
| 11.4 | Within an hour post-dose | CC(=O)Nc1ccc(O)c(C(=O)O)c1 [N-acetyl-ASA] |
